This is an account of results in patent publication US10300049B2, “Myeloid differentiation inducing agents” (CASE WESTERN RESERVE UNIVERSITY, priority 2007, dated 2019).

Assay [1] relates to HL-60 subcutaneous tumors. The experiment in a line: Established HL-60 subcutaneous tumor xenograft in nude mice. To be noted: 15 mg/kg twice a day. It counts as in vivo. The method, then: Nude mice (5 per experimental group) were injected with 5×10^7 HL-60 cells bilaterally into the flank. 9 days after tumor cell inoculation, the indicated drugs were injected I.P. three times a week for 3 weeks. […] Representative picture of the mice at the end of the study period (B). Representative picture of tumors dissected from the indicated mice. (C). Average weights of tumors dissected from all mice (D).
In order to further assess the in vivo potential of 6BT and Securinine, mouse xenograft experiments were performed. In the first model, the ability of 6BT and Securinine to inhibit established HL-60 subcutaneous leukemic tumor growth in nude mice was assessed. […] In the second model system, the ability of 6BT to prevent either HL-60 or MV-411 tumor formation in nude mice was assessed.
This Example assed the effects of securinine and its analogues in mice. […] HL-60 cell is an AML cell line commonly used for in-vitro studies and typically they are classified as M2 subtype. […] Therefore this was the highest dose that could be safely utilized.
Next we repeated the mouse xenograft experiments using i.p. drug administration (20 mg/kg), but with twice a day dosing again using HL-60 cell tumors.
Securinine (20 mg/kg) or vehicle ([…]) was injected i.p. into mice starting 10 days after HL-60 cell inoculation bilaterally into the flanks of nude mice (5 mice per group).

The subject of assay [2] is HL-60 cells. Kind of assay: NBT reduction assay of differentiation in HL-60 cells. It counts as cell-based, human. Particulars: for NBT reduction, ATRA alone (%) / NBT reduction, Decitabine alone (%): 4 days; for NBT (%): 10 days. From the text: The NBT screen works due to changes in the oxidoreductases during differentiation that lead to increases in rates of NBT reduction. NBT is reduced due to the production of superoxide that is catalyzed by an NADPH oxidase. […] A quantitative NBT reduction assay is ideal for this type of screen as it is simple, sensitive, quantitative, requires minimal cells, has been proven to have low well to well variability, and the amount of reduced NBT is proportional to the number of cells reducing the dye as well as the amount reduced by each cell.
[…] […] Differentiation is determined in the 96 well plates by incubating the cells with 1 mg/ml of NBT and 200 ng/ml of PMA as the stimulant for the respiratory burst for 35 minutes at 37° C. The reaction can then be stopped with HCL and the formazan will be solubilized with DMSO. Finally, the reaction mixture will be read spectrophotometricaly at 560 nm in a plate reader.
[…] […] Differentiation is determined in the 96 well plates by incubating the cells with 1 mg/ml of NBT and 200 ng/ml of PMA as the stimulant for the respiratory burst for 35 minutes at 37° C. The reaction will then be stopped with HCL and the formazan will be solubilized with DMSO. Finally, the reaction mixture will be read spectrophotometricaly at 560 nm in a plate reader.
The assays are done using the colorimetric process. The NBT reduction assay measures the respiratory burst and is done by stimulating the respiratory burst in cells with PMA and then looking for a color change in the NBT dye.

The subject of assay [3] is HL-60 cells. Kind of assay: Flow cytometry of CD11b and CD14 cell surface markers. The format is cell-based, human. To be noted: 4 days. On the procedure:
HL-60 cells were treated with the indicated compounds for 4 days, the cells were stained with CD11b-PE and CD14-FITC, and flow cytometric analysis was performed.
(In general: A flow cytometer gives signals particle by particle.)

The next assay deals with GABA A receptor. Particulars: compared with securinine; cited from earlier work.
The subject of assay [4] is HL-60 cells. Kind of assay: Cell cycle, propidium iodide flow cytometry. It counts as cell-based, human. To be noted: 4 days.
Procedure: HL-60 cells were treated with the indicated compounds for 4 days and the cells were stained with propidium iodide and analyzed by flow cytometry.
In assay [5] the test system is HL-60 cells. Kind of assay: Morphology, cytospin with Wright-Giemsa stain. The format is cell-based, human. Particulars: 4 days.
Procedure: HL-60 cells were treated with the indicated compounds for 4 days. Cytospin preparations were prepared and the cells were stained with Wright-Giemsa stain.

With `CC1=C(/C=C/C(C)=C/C=C/C(C)=C/C(=O)O)C(C)(C)CCC1` [ATRA, all-trans-retinoic acid, reference compound], in assay [1], the “tumor growth compared to vehicle treated mice” value is “did not show any difference in tumor growth”. Also, the “NBT reduction, ATRA alone (%)” value in the assay on HL-60 cells [2] (ATRA 3 nM) came out at 7%; in the assay with HL-60 cells [2] (ATRA 9 nM), 9%; in the assay on HL-60 cells [2] (ATRA 26 nM), 16%; in the assay with HL-60 cells [2] (ATRA 80 nM), 37%; in the assay with HL-60 cells [2] (ATRA 250 nM), 59%. Further, the “cells differentiated, NBT reduction assay” value in the assay on HL-60 cells [2] (HL-60 cells, 4 days (FIG. 3)) is listed as around 95%. This compound also returned a CD11b positive with HL-60 cells [3] (1 μM) of 77%. In addition, in the assay with HL-60 cells [3] (1 μM), the CD14 positive stood at 8%.
As to `O=C1C=C2C=C[C@@H]3C[C@@]2(O1)[C@@H]1CCCCN31` [Allosecurinine, allosecurinine], in the assay on GABA A receptor, the “GABA A receptor affinity” value is “decreased GABA A receptor affinity”. The “NBT (%)” value worked out at 20% in the assay with HL-60 cells [2] (0.06 μM); 25% in the assay with HL-60 cells [2] (1.25 μM); 40% in the assay with HL-60 cells [2] (2.5 μM); 50% in the assay on HL-60 cells [2] (5 μM); 80% with HL-60 cells [2] (10 μM).
On to `Cc1cc(O)nc2cc3oc4ccccc4c3cc12` [Compound 375, 4-methyl[1]benzofuro[3,2-g]quinolin-2-ol], for which the “cell cycle phase in which cells accumulate” value in the assay on HL-60 cells [4] is listed as “accumulation in G2/M”. Further, in the assay with HL-60 cells [3] (10 μM), the CD11b positive was found to be 64% and the CD14 positive is 19%. In the assay on HL-60 cells [5], the morphologic changes entry is given as “reproducible, but less pronounced changes”.
In the case of `Nc1ncn([C@H]2C[C@H](O)[C@@H](CO)O2)c(=O)n1` [Decitabine, reference compound], the “NBT reduction, Decitabine alone (%)” value in the assay on HL-60 cells [2] (Decitabine 10 ng/ml) stood at 14%; in the assay with HL-60 cells [2] (Decitabine 50 ng/ml), 23%; in the assay on HL-60 cells [2] (Decitabine 100 ng/ml), 26%.
`O=C1C=C2C=C[C@H]3C[C@]2(O1)[C@@H]1CCCCN13` [Virosecurinine, virosecurinine]: in the assay with GABA A receptor, the “GABA A receptor affinity” value is “decreased GABA A receptor affinity”. Further, the “NBT (%)” value in the assay with HL-60 cells [2] (0.06 μM) turned out to be 20%; in the assay with HL-60 cells [2] (1.25 μM), 30%; with HL-60 cells [2] (2.5 μM), 50%; in the assay on HL-60 cells [2] (5 μM), 99%; in the assay with HL-60 cells [2] (10 μM), 95%.
In the assay with HL-60 cells [3] (100 nM), `C=C1/C(=C\C=C2/CCC[C@]3(C)[C@@H]([C@H](C)CCCC(C)(C)O)CC[C@@H]23)C[C@@H](O)C[C@@H]1O` [Vitamin D, 1,25-dihydroxyvitamin D3, reference compound] registered a CD11b positive of 90% and a CD14 positive of 65%.
